In the experiment the target is T1, glycosyltransferase in crude enzyme liquid from pink carnation petals (Dianthus caryophyllus, UniProt E3W9M2).
T1 construct: Thus, a crude enzyme liquid was obtained; from tissue; host or cells: pink petals of carnation, variety Beam Cherry (ammonium sulfate precipitate, desalted)
T1 sequence (E3W9M2 31-502): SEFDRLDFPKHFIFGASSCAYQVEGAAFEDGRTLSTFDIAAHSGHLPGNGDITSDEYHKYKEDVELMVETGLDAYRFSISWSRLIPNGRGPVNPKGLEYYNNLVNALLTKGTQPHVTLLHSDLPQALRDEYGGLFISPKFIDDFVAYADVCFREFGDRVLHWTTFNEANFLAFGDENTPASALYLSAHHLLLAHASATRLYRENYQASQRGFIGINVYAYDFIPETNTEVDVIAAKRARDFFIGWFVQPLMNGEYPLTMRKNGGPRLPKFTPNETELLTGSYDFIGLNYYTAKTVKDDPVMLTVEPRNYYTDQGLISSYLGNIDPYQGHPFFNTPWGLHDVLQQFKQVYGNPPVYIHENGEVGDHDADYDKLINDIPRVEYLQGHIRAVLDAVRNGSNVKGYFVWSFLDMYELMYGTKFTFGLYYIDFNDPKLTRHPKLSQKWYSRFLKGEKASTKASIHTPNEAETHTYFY
Description: Detection of glycosyl transfer reaction with carnation petal crude enzyme liquid (HPLC). The following applies: pH 5.6, 30° C. In kind it is biochemical. Here is the method: Pink petals of a carnation (variety: “Beam Cherry”) were ground into a powder in liquid nitrogen using a mortar and a pestle. The obtained powder was added in a stepwise manner to a 50 mM potassium phosphate buffer (pH 7.2) and dissolved therein via stirring to prevent freezing. Then, an insoluble fraction was removed by centrifugation. A saturate ammonium sulfate solution was added to the obtained supernatant so as to result in a concentration of 80%. The mixture was left on ice for 5 minutes. The precipitated protein was collected by centrifugation. A 10 mM potassium phosphate buffer was added thereto for complete dissolution. The obtained solution was applied to a Sephadex G-25 gelfiltration support (GE Healthcare) for desalting. Thus, a crude enzyme liquid was obtained. […]
Glycosyltransferase activity was examined using a crude enzyme extracted from pink petals of a carnation (variety: “Beam Cherry”) or petals of a delphinium (variety: “marine blue”) in the manner described in Example 1. […] Then, the supernatant was analyzed by HPLC. […]

On to `O=C(OC1OC(CO)C(O)C(O)C1O)c1ccc(O)cc1` (stereo not drawn) [1-O-β-p-hydroxybenzoyl glucose], for which, under “carnation crude enzyme, cyanidin 3-O-β-glucoside 200 μM, sugar donor 1 mM, 15 minutes”, the “Recognition as sugar donor by carnation glycosylation enzyme” value was “recognize 1-O-β-p-hydroxybenzoyl glucose as a sugar donor”.

As for `COc1cc(C(=O)OC2OC(CO)C(O)C(O)C2O)ccc1O` (centres unmarked), the “Function as sugar donor (generation of cyanidin 3,5-O-β-diglucoside from cyanidin 3-glucoside)” value (carnation crude enzyme liquid, 40 minutes) is “functions as a sugar donor”.

For the origin of these results see US8722868B2, “Glycosyltransferase, novel glycosyltransferase gene, and novel sugar donor compound” (National University Corporation Tokyo University of …, priority 2009, dated 2014).
